In patent publication US6369222B1, “mGluR antagonists and a method for their synthesis” (Hoffmann-La Roche Inc., priority 2000, dated 2002) one finds melting point and IC50 data, which are given here for eight compounds.

Some results are limits rather than exact numbers.

The target of data set [1] is T1, rat mGluR1a receptor (Rattus norvegicus, UniProt P23385).
T1 construct: expressed in transfected cells; host or cells: HEK 293 cells, transient transfection; membranes used
As to the kind of experiment: Binding assay for the characterization of mGluR 1 antagonistic properties (displacement of tritiated 1-ethyl-2-methyl-6-oxo-4-(1,1,2-tritritio-1,2,4,5-tetrahydro-benzo[d]azepin-3-yl)-1,6-dihydro-pyrimidine-5-carbonitrile). The following applies: membranes of HEK 293 cells transiently transfected with rat mGluR1a, 10 μg protein per assay; radioligand 3 nM; 1 hour at room temperature; read-out: B-IC50. The protocol:
Binding Assay for the Characterization of mGluR 1 Antagonistic Properties
Binding assay with tritiated 1-ethyl-2-methyl-6-oxo-4-(1,1,2-tritritio-1,2,4,5-tetrahydro-benzo[d]azepin-3-yl)-1,6-dihydro-pyrimidine-5-carbonitrile: HEK 293 cells were transiently transfected with the rat mGluR1a receptor. The cells were collected and washed 3 times with PBS. The cell pellets were frozen at −80° C. Membranes were prepared from HEK 293 cells transfected with the rat mGluR1a receptor and used in the binding experiments at 10 μg proteins per assay after resuspension in a HEPES NaOH 20 mM, pH=7.4 binding buffer. 1-Ethyl-2-methyl-6-oxo-4-(1,1,2-tritritio-1,2,4,5-tetrahydro-benzo[d]azepin-3-yl)-1,6-dihydro-pyrimidine-5-carbonitrile (S.A. 33.4 Ci/mmol) was used at 3 nM final concentration. The incubation with variable concentrations of potential inhibitors was performed for 1 hour at room temperature, the incubate was then filtered onto GF/B glass fiber filter preincubated 1 hour in PEI 0,1% and washed 3 times with 1 ml of cold binding buffer. The radioactivity retained on the unifilter 96 was counted using a Topcount β counter. After correction for non specific binding the data were normalized and the IC50 value calculated using a 4 parameters logistic equation which was fitted to the inhibition curve.

T1 sequence (P23385 19-1199): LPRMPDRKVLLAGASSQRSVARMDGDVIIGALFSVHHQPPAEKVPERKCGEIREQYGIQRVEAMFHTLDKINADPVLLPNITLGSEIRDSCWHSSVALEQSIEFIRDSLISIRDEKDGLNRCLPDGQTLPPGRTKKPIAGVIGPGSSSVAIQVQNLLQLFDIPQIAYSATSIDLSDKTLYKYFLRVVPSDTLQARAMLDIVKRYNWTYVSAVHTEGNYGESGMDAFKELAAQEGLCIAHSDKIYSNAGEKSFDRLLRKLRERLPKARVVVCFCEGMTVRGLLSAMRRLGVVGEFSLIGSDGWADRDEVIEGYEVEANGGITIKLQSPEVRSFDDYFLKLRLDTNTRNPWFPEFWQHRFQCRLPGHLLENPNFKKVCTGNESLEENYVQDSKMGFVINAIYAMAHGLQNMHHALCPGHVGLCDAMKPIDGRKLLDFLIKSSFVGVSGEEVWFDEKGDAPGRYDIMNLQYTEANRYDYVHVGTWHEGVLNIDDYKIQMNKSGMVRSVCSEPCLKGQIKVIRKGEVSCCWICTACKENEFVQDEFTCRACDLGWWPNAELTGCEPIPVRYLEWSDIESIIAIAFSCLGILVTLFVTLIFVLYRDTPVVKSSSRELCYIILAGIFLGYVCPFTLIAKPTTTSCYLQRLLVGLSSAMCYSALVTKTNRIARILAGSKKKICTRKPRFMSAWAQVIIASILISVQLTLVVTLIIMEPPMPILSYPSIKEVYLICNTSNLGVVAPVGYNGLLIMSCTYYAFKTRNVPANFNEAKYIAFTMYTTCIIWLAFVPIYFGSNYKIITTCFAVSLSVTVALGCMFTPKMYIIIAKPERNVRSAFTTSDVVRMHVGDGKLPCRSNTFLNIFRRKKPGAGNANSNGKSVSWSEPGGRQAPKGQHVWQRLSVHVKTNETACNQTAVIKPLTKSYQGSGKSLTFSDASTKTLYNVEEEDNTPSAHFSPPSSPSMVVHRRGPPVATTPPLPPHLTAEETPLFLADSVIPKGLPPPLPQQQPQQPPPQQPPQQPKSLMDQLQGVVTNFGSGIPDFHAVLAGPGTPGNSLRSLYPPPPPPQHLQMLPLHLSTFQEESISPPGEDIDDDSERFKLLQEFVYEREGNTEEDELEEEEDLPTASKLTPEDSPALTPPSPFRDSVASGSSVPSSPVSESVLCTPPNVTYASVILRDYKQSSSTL

On to `Cc1nc(O)c2c(n1)CCN(c1nc(C)nc(O)c1[N+](=O)[O-])CC2` [Example 5, 7-(6-Hydroxy-2-methyl-5-nitro-pyrimidin-4-yl)-2-methyl-6,7,8,9-tetrahydro-5H-pyrimido[4,5-d]azepin-4-ol], for which the melting point (in general, the temperature, or range, at which the solid turns liquid) is more than 200 °C. Take `Cc1nc(N2CCc3ncsc3CC2)c([N+](=O)[O-])c(=O)[nH]1` [Example 6, 2-Methyl-5-nitro-6-(4,5,7,8-tetrahydro-thiazolo[4,5-d]azepin-6-yl)-3H-pyrimidin-4-one]: in data set [1], the IC50 – broadly, the concentration needed to halve the response being measured – was found to be 43 µM. As to `CCn1c(C)nc(N2CCc3nc(C)sc3CC2)c([N+](=O)[O-])c1=O` [Example 2, 3-Ethyl-2-methyl-6-(2-methyl-4,5,7,8-tetrahydro-thiazolo[4,5-d]azepin-6-yl)-5-nitro-3H-pyrimidin-4-one], the melting point is 164.2 to 166.8 °C. `CCn1c(C)nc(N2CCc3nc(N)sc3CC2)c([N+](=O)[O-])c1=O` [Example 4, 6-(2-Amino-4,5,7,8-tetrahydro-thiazolo[4,5-d]azepin-6-yl)-3-ethyl-2-methyl-5-nitro-3H-pyrimidin-4-one] returned a melting point of more than 200 °C. The IC50 in data set [1] was 6 µM. Regarding `Cc1nc(N2CCc3nc(N)sc3CC2)c([N+](=O)[O-])c(=O)[nH]1` [Example 3, 6-(2-Amino-4,5,7,8-tetrahydro-thiazolo[4,5-d]azepin-6-yl)-2-methyl-5-nitro-3H-pyrimidin-4-one], the melting point is more than 200 °C. Besides, in data set [1], the IC50 turned out to be 49 µM. Compound `Cc1nc(N2CCc3ccsc3CC2)c([N+](=O)[O-])c(=O)[nH]1` [Example 9, 2-Methyl-5-nitro-6-(4,5,7,8-tetrahydro-thieno[2,3-d]azepin-6-yl)-3H-pyrimidin-4-one] came in with a melting point of more than 200 °C. The IC50 in data set [1] was 1.9 µM.

As to `Cc1nc(N2CCc3nc(C)sc3CC2)c([N+](=O)[O-])c(=O)[nH]1` [Example 1, 2-methyl-6-(2-methyl-4,5,7,8-tetrahydro-thiazolo[4,5-d]azepin-6-yl)-5-nitro-3H-pyrimidin-4-one], the melting point is more than 200 °C. For the same compound, the IC50 in data set [1] was found to be 30 µM.

Turning to `Cc1nc(O)c([N+](=O)[O-])c(N2CCc3cncnc3CC2)n1` [Example 7, 2-Methyl-5-nitro-6-(5,6,8,9-tetrahydro-pyrimido[4,5-d]azepin-7-yl)-pyrimidin-4-ol], the melting point is more than 200 °C.
